Assays:
clinical = details: human, plasma
[1] = Pharmacokinetic comparison of 4- and 8-mg sublingual tablets with 1 mg i.v. in healthy male volunteers (Example 4)
[2] = Apomorphine in human patients: erection and side effects (prior studies / general findings); type: in vivo; details: apomorphine dosage forms
Source text: The specific mechanisms by which apomorphine acts to produce an erectile response in a human patient are not yet completely understood, however.

[3] = cited from earlier work
[4] = Plasma concentration or dose threshold for adverse effects
[5] = cited from earlier work; remark: listed apart in the source
[6] = Bioavailability by route of administration in dog (Example 3); details: in vivo
[7] = Nerve stimulated clitoral and vaginal wall blood flow in females; type: in vivo; details: administration to females
[8] = Plasma concentration profile in dog at day 1, 90 and 180 (Example 2); type: in vivo; details: day 1, day 90 or day 180, 0.04, 0.1, 0.4 mg/kg
Procedure: To assess whether the reduction in side effects could be attributable to changes in pharmacokinetic response, a plasma concentration profile study was conducted for each dosage group at day 1, day 90 and day 180.

[9] = cited from earlier work; remark: listed apart in the source
[10] = Adverse events in escalating dose tolerance study in psychogenic male erectile dysfunction (Example 5); type: in vivo, human; details: in vivo
Procedure: Example 5-Summary. This clinical study was conducted in three phases. In Phase 1 subjects were selected from among patients complaining of impotence by a thorough physiological and psychological assessment. For example, one step in the assessment process required candidates to undergo Rigiscan measurement of penile rigidity and circumference following administration of a placebo tablet in single blind fashion. Phase 2 consisted of a dose escalation (4, 6, and 8 mg tablets) administered on 4 visits. An out-patient phase was conducted as Phase 3. Patients were given apomorphine HCL tablets to use at home.
Example-5 Detailed Description (Clinical Study #94-03-01). The human study was conducted in three separate phases. Phase 1 consisted of selecting appropriate subjects and obtaining baseline information on sexual performance for each subject.
They were tested on four separate days at four separate doses (placebo and three active medication doses) with an interval of no less than six days between visits (i.e., one visit per week).
If the trial was aborted, the patient was given the choice of having Gravol 50 mg p.o. (an anti-emetic) administered at that time or enduring the adverse events as they arose. In either event, the patient was monitored by the research clinician until all side-effects had subsided. The patient was asked to return the following week for the next scheduled dose.
During the five-week, home-use phase, subjects were to attempt coitus at least once each week after taking a single APO tablet. After each attempt, the subject and their partner completed a Sexual Function questionnaire (See FIGS. 15 and 16) which was later evaluated and used for final statistical analysis.
The data was analyzed by an inspection of the reported adverse events, the given dose of apomorphine and the phase of the study, i.e., in-patient (dose escalating) or take-home (constant dose) phases.

## CN1CCc2cccc3c2[C@H]1Cc1ccc(O)c(O)c1-3 [apomorphine, (R)-5,6,6a,7-Tetrahydro-6-methyl-4H-dibenzo-[de,g] quinoline-10,11-diol]
clinical; 4 mg
  AUC: 0.527 ng·h/mL
  Cmax: 0.83 ng/mL
clinical; 8 mg
  AUC: 4.72 ng·h/mL
clinical; iv, 1 mg
  AUC: 3.45 ng·h/mL
  Cmax: 8.3 ng/mL
[1]; i.v. 1 mg
  MRT (mean residual time): 40.3 min
[1]; s.l. tablet 8 mg
  Vd (volume of distribution @ β stage): 2.07 L/kg
[2]
  effectiveness in Parkinson's disease and psychogenic erectile dysfunction: effective
[3]; large doses, mammals such as humans, dogs
  nausea and vomiting after large doses: usually results in nausea and vomiting
[3]; subcutaneous, recognized use as an emetic
  emetic dose: ~5 milligram
[4]; plasma concentration maintained at no more than
  plasma concentration at which incidence of adverse side effects is minimal: no more than 5.5 ng/ml
[4]; plasma, human male subjects, nausea
  threshold concentration (Cmax) for onset of adverse effects: about 2.5 nanograms/milliliter
[4]; sublingual tablet, week 1
  threshold dose for most impotence patients: 2 mg
[5]; 1,500 μg/kg/hr, 14 day study
  lethality of larger infusion dose: minimally lethal
[5]; continuous infusion, 14 days
  tolerated continuous infusion dose: 420 µg/kg/h
[6]; 0.2 mg/kg
  AUC: 5.45 ng·h/mL
[6]; po, 0.2 mg/kg
  AUC: 1.58 ng·h/mL
[6]; sc, 0.04 mg/kg
  AUC: 8.06 ng·h/mL
[7]
  nerve stimulated clitoral intracavernosal and vaginal wall blood flow: increases nerve stimulated clitoral intracavernosal blood flow and vaginal wall blood flow
[8]
  AUC, distribution, or elimination over repeated dosing: No evidence of significant changes
[9]; erectile responses in human males
  side effects / therapeutic usefulness (Segraves): too many side effects to have therapeutic usefulness
[9]; psychogenic impotence
  erection in psychogenic male patients: can indeed induce an erection in a psychogenic patient
  side effects at dose required for significant erectile response: usually accompanied by nausea or other serious undesirable side effects, including hypertension, flushing and diaphoresis (sweating)
[10]
  blood or urinalysis values: no clinically significant changes
